Patent US8589175B2, “Optimization and individualization of medication selection and dosing” (Children's Hospital Medical Center, priority 2005, dated 2013)
Like-named read-outs stand apart in the source and are kept apart here.

Experiments:
[1] = tested on: CYP2D6
[2] = tested on: CYP2C19; experiment: dosing recommendation per CYP2C19 metabolizer subgroup as percentage of usual population dose (Equations 4-6)
From the text: Assuming the goal is to maintain the same AUC for all three subpopulations of patients, the following subpopulation dosing relationships hold: DPM=DEM*(AUCEM/AUCPM) OR DPM=DEM*R if R=(AUCEM/AUCPM) (Equation 2) DIM=DEM*(AUCEM/AUCIM) OR DIM=DEM*S if S=(AUCEM/AUCIM) (Equation 3)
By substituting equations 2 and 3 into equation 1, and then rearranging the equation to solve for the percent dose adjustment needed for each subgroup relative to the population dose: DEM(%)=100/(fEM+fIM*S+fPM*R) (Equation 4) DPM(%)=R*DEM (Equation 5) DIM(%)=S*DEM (Equation 6) Equations 4, 5, and 6 show how the dosing for the more homogeneous subgroups is determined and how the dosing results are expressed as a fraction of the clinician's usual heterogeneous whole group dosages. Determining “Minimal Dose Adjustment Units”
Example: The approach in the previous section leads to individualized initial drug dose recommendations for each of the 3 subgroups (extensive, poor and intermediate metabolizers). Each subgroup represents a specific number of functional alleles for the specific DME (extensive metabolizers have 2 functional, intermediate metabolizers have 1 functional and poor metabolizers have 0 functional). The resultant dosing recommendations are expressed as percentages of the clinician's usual starting dose. It is possible to investigate the effect of increasing numbers of non-functional alleles using these new dosing recommendations. For example, if DRX % is the dosing recommendation for subgroup X expressed as a percentage of the clinician's usual starting dose then the following are true: Effect of […] 1 non-functional allele=(DREM %−DRIM %)/DREM % Effect of 2 non-functional allele=(DREM %−DRPM %)/DREM % Below is a spreadsheet (Table 3) that examines this for CYP2D6, CYP2C19 and CYP2C9. […] 2C9 has 2 MDA units per non-functional allele.

[3] = CYP2D6, ratio of the two effects
[4] = CYP2D6 extensive metabolizers, percent of usual dose
[5] = CYP2D6 intermediate metabolizers, percent of usual dose
[6] = CYP2D6 poor metabolizers, percent of usual dose
[7] = CYP2D6 ultrarapid metabolizers, percent of usual dose
[8] = CYP2C19 intermediate metabolizers, percent of usual dose
[9] = CYP2C19 poor metabolizers, percent of usual dose

| 1 al (effect of 1 non-functional allele) ([1]; human) | 2 al (effect of 2 non-functional alleles) ([1]; human) | 2 al/1 al ([1]; human) | EM (%) dosing recommendation ([1]; human) | IM (%) dosing recommendation ([1]; human) | PM (%) dosing recommendation ([1]; human) | UM (%) dosing recommendation ([1]; human) | Structure (SMILES) | also measured |
| --- | --- | --- | --- | --- | --- | --- | --- | --- |
| – | – | – | – | – | – | – | COc1ccc(C(CN(C)C)C2(O)CCCCC2)cc1 (centres unmarked) [venlafaxine] | 1 al (effect of 1 non-functional allele) ([1]; CYP2D6, (DREM%-DRIM%)/DREM%): 0.21; 2 al (effect of 2 non-functional alleles) ([1]; CYP2D6, (DREM%-DRPM%)/DREM%): 0.38; 2 al/1 al [1, 3]: 1.78; EM (%) dosing recommendation [1, 4]: 109%; IM (%) dosing recommendation [1, 5]: 86%; PM (%) dosing recommendation [1, 6]: 68%; UM (%) dosing recommendation [1, 7]: 130% |
| – | – | – | – | – | – | – | OCCN1CCN(CCCN2c3ccccc3Sc3ccc(Cl)cc32)CC1 [perphenazine] | 1 al (effect of 1 non-functional allele) ([1]; CYP2D6, (DREM%-DRIM%)/DREM%): 0.38; 2 al (effect of 2 non-functional alleles) ([1]; CYP2D6, (DREM%-DRPM%)/DREM%): 0.76; 2 al/1 al [1, 3]: 2.00; EM (%) dosing recommendation [1, 4]: 129%; IM (%) dosing recommendation [1, 5]: 80%; PM (%) dosing recommendation [1, 6]: 31%; UM (%) dosing recommendation [1, 7]: 178% |
| 0.00 | 0.00 | – | 100% | 100% | 100% | 100% | COc1ccc2c(c1)N(C[C@H](C)CN(C)C)c1ccccc1S2 [levomepromazine] | – |
| 0.31 | 0.72 | 2.35 | 131% | 91% | 37% | 178% | CC(CN(C)C)CN1c2ccccc2CCc2ccccc21 (centres unmarked) [trimipramine] | 1 al (effect of 1 non-functional allele) ([2]; human): 0.53; 2 al (effect of 2 non-functional alleles) ([2]; human): 0.59; 2 al/1 al ([2]; human): 1.12; IM (%) dosing recommendation ([2]; human): 62%; PM (%) dosing recommendation ([2]; human): 45%; UM (%) dosing recommendation ([2]; human): 111% |
| 0.01 | 0.03 | – | 101% | 100% | 98% | 102% | CN(C)CCCC1(c2ccc(F)cc2)OCc2cc(C#N)ccc21 (centres unmarked) [citalopram] | 1 al (effect of 1 non-functional allele) ([2]; human): 0.22; 2 al (effect of 2 non-functional alleles) ([2]; human): 0.44; 2 al/1 al ([2]; human): 1.96; IM (%) dosing recommendation ([2]; human): 84%; PM (%) dosing recommendation ([2]; human): 61%; UM (%) dosing recommendation ([2]; human): 108% |
| 0.35 | 0.72 | 2.02 | 127% | 82% | 36% | 173% | CNCCCC12CCC(c3ccccc31)c1ccccc12 [maprotiline] | 1 al (effect of 1 non-functional allele) ([2]; human): 0.00; 2 al (effect of 2 non-functional alleles) ([2]; human): 0.00; IM (%) dosing recommendation ([2]; human): 100%; PM (%) dosing recommendation ([2]; human): 100%; UM (%) dosing recommendation ([2]; human): 100% |
| 0.35 | 0.72 | – | 127% | 82% | 36% | 173% | CN(C)CCC=C1c2ccccc2COc2ccccc21 [doxepin] | 1 al (effect of 1 non-functional allele) ([2]; human): 0.13; 2 al (effect of 2 non-functional alleles) ([2]; human): 0.54; IM (%) dosing recommendation ([2]; human): 91%; PM (%) dosing recommendation ([2]; human): 46% |
| 0.34 | 0.66 | 1.98 | 125% | 83% | 42% | 167% | CNCCCN1c2ccccc2CCc2ccccc21 [desipramine] | – |
| 0.15 | 0.31 | 2.00 | 110% | 93% | 76% | 127% | O=c1n(CCCN2CCN(c3cccc(Cl)c3)CC2)nc2ccccn12 [trazadone] | – |
| 0.08 | 0.14 | 1.88 | 105% | 97% | 90% | 113% | CCc1nn(CCCN2CCN(c3cccc(Cl)c3)CC2)c(=O)n1CCOc1ccccc1 [nefazodone] | – |
| −0.02 | −0.03 | – | 99% | 101% | 102% | 97% | CN1CCN2c3ncccc3Cc3ccccc3C2C1 (centres unmarked) [mirtazapine] | – |
| 0.03 | 0.07 | – | 102% | 99% | 95% | 105% | O=c1[nH]c2ccccc2n1C1CCN(CCCC(c2ccc(F)cc2)c2ccc(F)cc2)CC1 [pimozide] | – |
| 0.09 | 0.29 | 3.10 | 107% | 97% | 76% | 126% | O=C(CCCN1CCC(O)(c2ccc(Cl)cc2)CC1)c1ccc(F)cc1 [haloperidol] | – |
| 0.22 | 0.46 | 2.04 | 116% | 90% | 63% | 142% | OCCN1CCN(CC/C=C2/c3ccccc3Sc3ccc(Cl)cc32)CC1 [zuclopenthixol] | – |
| – | – | – | – | – | – | – | CN(C)CCCN1c2ccccc2CCc2ccc(Cl)cc21 [clomipramine] | 1 al (effect of 1 non-functional allele) ([2]; human): 0.28; 2 al (effect of 2 non-functional alleles) ([2]; human): 0.44; IM (%) dosing recommendation ([2]; human): 79%; UM (%) dosing recommendation ([2]; human): 110% |
| 0.17 | 0.22 | 1.26 | 110% | 91% | 86% | 117% | CN1CCN(CCCN2c3ccccc3Sc3ccccc32)CC1 [perazine] | – |
| – | – | – | – | – | – | – | O=C1CCc2ccc(OCCCCN3CCN(c4cccc(Cl)c4Cl)CC3)cc2N1 [aripiprazole] | 1 al (effect of 1 non-functional allele) ([1]; CYP2D6, (DREM%-DRIM%)/DREM%): 0.19; 2 al (effect of 2 non-functional alleles) ([1]; CYP2D6, (DREM%-DRPM%)/DREM%): 0.38; 2 al/1 al [1, 3]: 2.05; EM (%) dosing recommendation [1, 4]: 113%; IM (%) dosing recommendation [1, 5]: 92%; PM (%) dosing recommendation [1, 6]: 70%; UM (%) dosing recommendation [1, 7]: 134% |
| – | – | – | – | – | – | – | Fc1ccc([C@@H]2CCNC[C@H]2COc2ccc3c(c2)OCO3)cc1 [paroxetine] | 1 al (effect of 1 non-functional allele) ([1]; CYP2D6, (DREM%-DRIM%)/DREM%): 0.21; 2 al (effect of 2 non-functional alleles) ([1]; CYP2D6, (DREM%-DRPM%)/DREM%): 0.42; 2 al/1 al [1, 3]: 2.00; EM (%) dosing recommendation [1, 4]: 114%; IM (%) dosing recommendation [1, 5]: 90%; PM (%) dosing recommendation [1, 6]: 66%; UM (%) dosing recommendation [1, 7]: 138% |
| – | – | – | – | – | – | – | Cl.Cl.OCCN1CCN(CCC=C2c3ccccc3Sc3ccc(C(F)(F)F)cc32)CC1 (mixture of isomers) [flupentixol] | 1 al (effect of 1 non-functional allele) [1]: 0.26; 2 al (effect of 2 non-functional alleles) [1]: 0.36; 2 al/1 al [1]: 1.40; EM (%) dosing recommendation [1]: 116%; IM (%) dosing recommendation [1]: 86%; PM (%) dosing recommendation [1]: 74%; UM (%) dosing recommendation [1]: 146% |

| Structure (SMILES) | 1 al (effect of 1 non-functional allele) ([1]; human) | 2 al (effect of 2 non-functional alleles) ([1]; human) | 2 al/1 al ([1]; human) | EM (%) dosing recommendation ([1]; human) | IM (%) dosing recommendation ([1]; human) | PM (%) dosing recommendation ([1]; human) | UM (%) dosing recommendation ([1]; human) | also measured |
| --- | --- | --- | --- | --- | --- | --- | --- | --- |
| CN(C)CCC=C1c2ccccc2CCc2ccccc21 [amitryptiline] | 0.17 | 0.34 | 2.00 | 111% | 92% | 73% | 130% | 1 al (effect of 1 non-functional allele) ([2]; CYP2C19): 0.26; 2 al (effect of 2 non-functional alleles) ([2]; CYP2C19): 0.51; UM (%) dosing recommendation ([2]; CYP2C19, head prints UM, percent of usual dose): 109%; 2 al/1 al ([2]; CYP2C19, ratio of the two effects): 2.00; IM (%) dosing recommendation [2, 8]: 81%; PM (%) dosing recommendation [2, 9]: 53% |
| CNCCC(Oc1ccc(C(F)(F)F)cc1)c1ccccc1 (centres unmarked) [fluoxetine] | 0.12 | 0.27 | – | – | 94% | 78% | 120% | 1 al (effect of 1 non-functional allele) ([2]; CYP2C19): 0.20; 2 al (effect of 2 non-functional alleles) ([2]; CYP2C19): 0.35; IM (%) dosing recommendation [2, 8]: 86%; PM (%) dosing recommendation [2, 9]: 70% |
| Cc1nc2n(c(=O)c1CCN1CCC(c3noc4cc(F)ccc34)CC1)CCCC2 [risperidone] | 0.09 | – | – | – | – | – | – | – |
| CNCCC=C1c2ccccc2CCc2ccccc21 [nortriptyline] | 0.19 | 0.55 | 2.87 | 119% | 96% | 53% | 152% | – |
